ChEMBL document CHEMBL4043226, “Design, synthesis and biological evaluation of benzamide and phenyltetrazole derivatives with amide and urea linkers as BCRP inhibitors” (Bioorg Med Chem Lett, 2017)

How the values were obtained:
[1] = tested on: NCI-H460; assay: Cytotoxicity against human H460 cells after 72 hrs by MTT assay; assay type: cell-based; settings: NCI-H460, 72 h
[2] = Resistance index, ratio of mitoxantrone IC50 for human H460/MX20 cells to mitoxantrone IC50 for human H460 cells at 1 uM (reference value: 28.66)
[3] = molecular target: T1, ABCG2 (BCRP) (Homo sapiens, UniProt Q9UNQ0); assay: Activation of ABCG2 (unknown origin) expressed in high five insect cell membrane vesicles assessed as induction of basal BCRP ATPase activity at 10 uM preincubated for 3 mins followed by ATP addition measured for 20 mins relative to control; settings: High Five insect cell membrane vesicles expressing ABCG2, read-out: FC
T1 sequence (Q9UNQ0 whole entry): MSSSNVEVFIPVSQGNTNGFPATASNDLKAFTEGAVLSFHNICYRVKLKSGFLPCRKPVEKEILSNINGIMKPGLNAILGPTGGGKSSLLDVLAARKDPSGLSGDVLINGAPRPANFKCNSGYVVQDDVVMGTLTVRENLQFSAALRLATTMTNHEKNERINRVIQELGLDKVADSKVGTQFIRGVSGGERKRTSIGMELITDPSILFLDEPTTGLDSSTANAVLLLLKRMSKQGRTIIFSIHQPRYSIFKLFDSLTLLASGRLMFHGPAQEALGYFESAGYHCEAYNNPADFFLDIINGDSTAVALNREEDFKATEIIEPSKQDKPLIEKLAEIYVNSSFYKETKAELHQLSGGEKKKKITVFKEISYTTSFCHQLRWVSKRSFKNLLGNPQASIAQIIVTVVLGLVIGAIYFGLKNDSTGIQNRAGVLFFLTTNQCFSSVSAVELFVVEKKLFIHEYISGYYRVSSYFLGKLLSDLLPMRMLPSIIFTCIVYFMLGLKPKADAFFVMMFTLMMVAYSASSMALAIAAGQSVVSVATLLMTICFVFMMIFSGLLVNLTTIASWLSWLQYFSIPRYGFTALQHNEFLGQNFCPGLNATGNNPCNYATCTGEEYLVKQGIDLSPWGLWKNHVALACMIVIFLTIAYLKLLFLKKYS

[4] = Cytotoxicity against human NCI-H460/MX20 cells after 72 hrs by MTT assay; assay type: cell-based; settings: NCI-H460/MX20, 72 h
[5] = Inhibition of ABCG2 in human H460/MX20 cells assessed as potentiation of mitoxantrone induced antiproliferative activity by measuring mitoxantrone IC50 at 10 uM preincubated for 2 hrs followed by mitoxantrone addition measured after 72 hrs by MTT assay (reference value: 6.161 +/- 0.172 microM)
[6] = molecular target: T2, Broad substrate specificity ATP-binding cassette transporter ABCG2 (Homo sapiens, UniProt Q9UNQ0); assay: Inhibition of ABCG2 (unknown origin) expressed in high five insect cell membrane vesicles assessed as reduction in BCRP ATPase activity at 3 to 30 uM preincubated for 3 mins followed by ATP addition measured for 20 mins
T2 sequence (Q9UNQ0 whole entry): T1 sequence (Q9UNQ0 whole entry)

[7] = molecular target: T2, Broad substrate specificity ATP-binding cassette transporter ABCG2; assay: Inhibition of ABCG2 (unknown origin) expressed in high five insect cell membrane vesicles assessed as reduction in BCRP ATPase activity up to 3 uM preincubated for 3 mins followed by ATP addition measured for 20 mins
[8] = Resistance index, ratio of mitoxantrone IC50 for human H460/MX20 cells to mitoxantrone IC50 for human H460 cells at 10 uM (reference value: 28.66)
[9] = Resistance index, ratio of mitoxantrone IC50 for human H460/MX20 cells to mitoxantrone IC50 for human H460 cells at 3 uM (reference value: 28.66)
[10] = molecular target: T2, Broad substrate specificity ATP-binding cassette transporter ABCG2; assay: Inhibition of BCRP (unknown origin) expressed in MCF-7 MX cells assessed as reduction in Hoechst 33342 accumulation preincubated for 30 mins followed by Hoechst 33342 addition measured every 60 secs up to 120 mins by fluorescence assay; assay type: cell-based

| fold induction at 20 min, 10 µM [3] | inhibition (INH) [6] | inhibition (INH) [7] | IC50 [10] [µM] | SMILES | IC50 [1] [µM] | Ratio IC50 [2] | IC50 [4] [µM] | IC50 [5] [µM] | Ratio IC50 [8] | Ratio IC50 [9] |
| --- | --- | --- | --- | --- | --- | --- | --- | --- | --- | --- |
| 1.47 | Active | Not Active | – | CCCc1ccc(NC(=O)c2ccccc2NC(=O)Nc2ccc([N+](=O)[O-])cc2)cc1 | > 100 | 2.89 | > 100 | 0.325 | 1.51 | 2.24 |
| – | – | – | 0.94 | CCCc1ccc(NC(=O)c2ccccc2NC(=O)c2ccc([N+](=O)[O-])cc2)cc1 | > 100 | 3.87 | > 100 | – | 2.76 | 3.64 |
